Experimental data as given in BindingDB's records for doi:10.1124/mol.112.080291 (University of California San Diego, 2014).
Several values for one entry are separate records, joined by “and”; a condition that tells them apart may be missing. Equal entries are not always repeated.

How the values were obtained:
Assay in all cases: Synthesizing Selective Agonists for the ?7 Nicotinic Receptor with in situ Click-Chemistry on Acetylcholine Binding Protein Templates.
[1] = target: T1, 5-hydroxytryptamine receptor 3A (Mus musculus, UniProt P23979); settings: pH 7.4; 37 °C
T1 sequence (P23979 whole entry): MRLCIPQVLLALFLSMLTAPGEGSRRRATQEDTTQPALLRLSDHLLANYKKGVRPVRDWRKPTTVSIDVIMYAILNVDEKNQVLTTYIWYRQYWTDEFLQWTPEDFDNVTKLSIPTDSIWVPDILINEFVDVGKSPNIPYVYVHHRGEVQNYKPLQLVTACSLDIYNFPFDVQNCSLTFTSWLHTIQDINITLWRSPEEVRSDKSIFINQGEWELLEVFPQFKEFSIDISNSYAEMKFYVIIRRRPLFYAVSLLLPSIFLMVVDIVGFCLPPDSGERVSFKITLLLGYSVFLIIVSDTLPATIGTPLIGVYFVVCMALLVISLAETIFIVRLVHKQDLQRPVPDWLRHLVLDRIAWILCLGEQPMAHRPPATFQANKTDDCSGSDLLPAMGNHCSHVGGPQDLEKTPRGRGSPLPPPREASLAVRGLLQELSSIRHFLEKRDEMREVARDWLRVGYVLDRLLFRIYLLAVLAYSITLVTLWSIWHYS
Method: (§1) Assay Description 2 Assays used to generate Ki or EC50 values. 1) SPA Assay - Quick screen binding assays were performed using 100 l of 0.2 mg/ml anti-mouse SPA antibody-binding beads (Amersham Biosciences) mixed with 33.6 g of monoclonal anti-FLAG M2 antibody from mouse (Sigma) in 0.1 M NaPO4 buffer, pH 7.0 (SPA mixture). Media (5l) collected 2 days after transfection were added to the mixture and finally 10 l of (+)-[3H]epibatidine (PerkinElmer Life Sciences) was added at a final concentration of 10 nM. Solutions were each counted for 1 min on either a Beckman LS 6500 liquid scintillation counter or Wallac 1450 Microbeta Trilux. Negative and positive controls consisted of media (5 l) from the respective transfections. Nonexpressing mutants were transfected and verified de novo in triplicate. Western immunoblots were also performed upon media (15 l) from transfections to verify the lack of expression. Competition curves and direct binding were measured following the protocol p

[2] = target: T2, Soluble acetylcholine receptor (Aplysia californica, UniProt Q8WSF8); settings: pH 7.4; 20 °C
T2 sequence (Q8WSF8 whole entry): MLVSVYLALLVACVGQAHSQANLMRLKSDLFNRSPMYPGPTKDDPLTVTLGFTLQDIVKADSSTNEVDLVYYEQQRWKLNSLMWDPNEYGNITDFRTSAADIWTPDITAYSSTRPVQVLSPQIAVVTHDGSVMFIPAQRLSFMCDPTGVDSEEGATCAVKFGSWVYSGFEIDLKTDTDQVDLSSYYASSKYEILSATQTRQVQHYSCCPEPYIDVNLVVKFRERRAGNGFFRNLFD
Method: as §1

[3] = target: Neuronal acetylcholine receptor subunit alpha-7 (Homo sapiens, UniProt P36544); settings: pH 7.4; 37 °C
Neuronal acetylcholine receptor subunit alpha-7, sequence (P36544 whole entry): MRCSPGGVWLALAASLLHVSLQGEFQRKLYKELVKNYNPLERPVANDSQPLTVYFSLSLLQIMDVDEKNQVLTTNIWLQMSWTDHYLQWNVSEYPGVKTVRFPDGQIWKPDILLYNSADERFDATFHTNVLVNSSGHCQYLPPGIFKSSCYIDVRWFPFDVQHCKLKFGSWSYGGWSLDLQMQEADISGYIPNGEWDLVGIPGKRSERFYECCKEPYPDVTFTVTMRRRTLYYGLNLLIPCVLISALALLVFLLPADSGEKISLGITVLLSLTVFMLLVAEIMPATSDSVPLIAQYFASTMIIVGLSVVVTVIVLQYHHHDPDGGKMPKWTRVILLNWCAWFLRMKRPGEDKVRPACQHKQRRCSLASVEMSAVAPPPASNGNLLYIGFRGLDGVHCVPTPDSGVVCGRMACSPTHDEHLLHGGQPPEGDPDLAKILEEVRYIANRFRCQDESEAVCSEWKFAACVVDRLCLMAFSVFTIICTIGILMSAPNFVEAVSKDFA
Method: as §1

[4] = target: Acetylcholine-binding protein (Lymnaea stagnalis, UniProt P58154); settings: pH 7.4; 20 °C
Acetylcholine-binding protein, sequence (P58154 whole entry): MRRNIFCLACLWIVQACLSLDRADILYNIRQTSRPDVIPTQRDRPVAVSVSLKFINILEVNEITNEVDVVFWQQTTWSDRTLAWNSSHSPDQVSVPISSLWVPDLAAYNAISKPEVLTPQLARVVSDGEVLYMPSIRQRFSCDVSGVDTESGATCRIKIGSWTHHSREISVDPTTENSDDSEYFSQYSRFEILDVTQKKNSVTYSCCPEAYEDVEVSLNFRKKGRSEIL
Method: as §1

[5] = target: Neuronal acetylcholine receptor subunit alpha-4 (Homo sapiens, UniProt P43681); settings: pH 7.4; 37 °C
Neuronal acetylcholine receptor subunit alpha-4, sequence (P43681 whole entry): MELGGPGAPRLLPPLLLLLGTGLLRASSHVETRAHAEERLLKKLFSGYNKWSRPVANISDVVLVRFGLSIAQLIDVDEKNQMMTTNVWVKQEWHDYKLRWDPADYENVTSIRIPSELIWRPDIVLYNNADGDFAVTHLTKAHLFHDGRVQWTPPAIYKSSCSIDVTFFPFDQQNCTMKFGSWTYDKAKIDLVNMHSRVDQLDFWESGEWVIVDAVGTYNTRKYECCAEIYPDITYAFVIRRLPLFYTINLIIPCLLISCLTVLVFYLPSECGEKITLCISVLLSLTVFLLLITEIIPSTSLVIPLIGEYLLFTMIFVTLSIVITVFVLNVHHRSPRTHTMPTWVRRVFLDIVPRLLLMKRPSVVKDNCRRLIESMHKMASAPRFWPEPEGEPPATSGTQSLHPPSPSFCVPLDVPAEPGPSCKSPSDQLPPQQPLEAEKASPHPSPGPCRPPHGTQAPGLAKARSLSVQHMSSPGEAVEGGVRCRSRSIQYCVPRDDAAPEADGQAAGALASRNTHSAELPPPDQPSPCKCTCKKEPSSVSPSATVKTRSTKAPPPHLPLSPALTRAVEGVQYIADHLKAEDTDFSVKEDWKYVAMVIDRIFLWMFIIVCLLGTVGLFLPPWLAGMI
Method: as §1

SMILES	Ki [1] [µM]	Ki [2]	EC50 [3] [nM]	Ki [4] [nM]	Ki [5] [µM]
CC(=O)c1c(OCc2cn([C@@H]3C[C@H]4CC[C@@H](C3)[N+]4(C)C)nn2)ccc2ccccc12 [22q]	> 30	200 nM and 300 nM and 900 nM	400	160	> 30
C[N+]1(C)[C@@H]2CC[C@H]1C[C@H](n1cc(COc3ccccc3-c3ccno3)nn1)C2 [14q]	> 30	140 nM and 170 nM and 96 nM	2000	50	> 30
CN1[C@@H]2CC[C@H]1C[C@H](n1cc(C3(O)CCCCC3)nn1)C2 [11t]	> 30	> 5000 nM	> 30000	> 5000	> 30
C[N+]1(C)[C@@H]2CC[C@H]1C[C@H](n1cc(CNS(=O)(=O)c3ccc([N+](=O)[O-])cc3)nn1)C2 [16q]	> 30	620 nM and 800 nM and 600 nM	1800	> 5000	> 30
Cn1c(=O)cc(OCc2cn(CC[N+]34CCC(CC3)CC4)nn2)c2ccccc21 [alpha7 agonists 3]	> 30	–	1800	–	8
COc1ccc(C=O)c(OCc2cn([C@@H]3C[C@H]4CC[C@@H](C3)[N+]4(C)C)nn2)c1 [13q]	> 30	110 nM and 120 nM and 80 nM	800	20	7
CC(=O)NCc1cn([C@@H]2C[C@H]3CC[C@@H](C2)N3C)nn1 [10t]	> 30	> 5000 nM	> 30000	900	18
C[N+]1(C)[C@@H]2CC[C@H]1C[C@H](n1cc(COc3cccc(C#N)c3)nn1)C2 [alpha7 agonists 7]	> 30	–	900	–	> 30
C[N+]1(C)[C@@H]2CC[C@H]1C[C@H](n1cc(C(O)(c3ccccc3)C(F)(F)F)nn1)C2 (stereo partly specified) [19q]	> 30	–	2000	120	22
Cn1nncc1COc1cc(=O)n(C)c2ccccc12 [alpha7 agonists 1']	> 30	1400 nM and 170 nM	6000	60	30
Cc1cc(C)nc(SCCCc2cn([C@@H]3C[C@H]4CC[C@@H](C3)[N+]4(C)C)nn2)n1 [21q]	> 30	–	3000	40	27.1
CN1[C@@H]2CC[C@H]1C[C@H](n1cc(-c3cc(C(F)(F)F)cc(C(F)(F)F)c3)nn1)C2 [17t]	> 30	1100 nM and > 5000 nM	> 30000	600	> 30
Cn1c(=O)cc(OCc2cnnn2CCC[N+]2(C)CCCC2)c2ccccc21 [5']	> 30	1400 nM and 800 nM	2000	600	40
CN1CC=C(OCc2cnnn2C2CC3CCC(C2)[N+]3(C)C)c2ccccc21 (stereo unspecified) [4']	0.9	300 nM and 100 nM	600	2	23
CC(=O)c1c(OCc2cn([C@@H]3C[C@H]4CC[C@@H](C3)N4C)nn2)ccc2ccccc12 [22t]	12	800 nM and 700 nM and > 5000 nM	9000	141	12
CN1[C@@H]2CC[C@H]1C[C@H](n1cc(CNC(=O)c3ccco3)nn1)C2 [12t]	> 30	> 5000 nM and 1400 nM	> 30000	210	20
Cn1c(=O)cc(OCc2cn(CCC[N+]3(C)CCCC3)nn2)c2ccccc21 [alpha7 agonists 5]	> 30	–	800	–	18
C[N+]1(C)[C@@H]2CC[C@H]1C[C@H](n1cc(CNC(=O)c3ccco3)nn1)C2 [12q]	> 30	600 nM and 1000 nM and 700 nM	3000	400	> 30

SMILES	Ki [1] [µM]	Ki [2]	EC50 [3] [nM]	Ki [4] [nM]	Ki [5] [µM]
CCC[N+](C)(C)CCn1nncc1COc1cc(=O)n(C)c2ccccc12 [2']	> 30	800 nM and 210 nM	4200	40	> 30
Cc1cc(C)nc(SCCCc2cn([C@@H]3C[C@H]4CC[C@@H](C3)N4C)nn2)n1 [21t]	> 30	–	> 30000	300	> 30
CC(=O)NCc1cn([C@@H]2C[C@H]3CC[C@@H](C2)[N+]3(C)C)nn1 [10q]	> 30	800 nM and > 5000 nM and 900 nM	5000	> 5000	> 30
CN1[C@@H]2CC[C@H]1C[C@H](n1cc(COc3ccccc3-c3ccno3)nn1)C2 [14t]	> 30	–	> 30000	25	> 30
CN1[C@@H]2CC[C@H]1C[C@H](n1cc(C3(O)c4ccccc4-c4ccccc43)nn1)C2 [20t]	> 30	2000 nM and 3100 nM and > 5000 nM	12000	500	> 30
CN1[C@@H]2CC[C@H]1C[C@H](n1cc(COc3ccccc3C3CCCC3)nn1)C2 [18t]	12	–	> 30000	30	12
C[N+]1(C)[C@@H]2CC[C@H]1C[C@H](n1cc(COc3ccccc3C3CCCC3)nn1)C2 [18q]	> 30	260 nM and 270 nM and 440 nM	400	70	4
C[N+]1(C)[C@@H]2CC[C@H]1C[C@H](n1cc(C3(O)c4ccccc4-c4ccccc43)nn1)C2 [20q]	> 30	400 nM and 600 nM and 120 nM	4000	50	15
C[N+]1(C)[C@@H]2CC[C@H]1C[C@H](n1cc(CSc3nc4ccccc4s3)nn1)C2 [15q]	> 30	13 nM and 8 nM	200	4	3
CN1[C@@H]2CC[C@H]1C[C@H](n1cc(CNS(=O)(=O)c3ccc([N+](=O)[O-])cc3)nn1)C2 [16t]	> 30	> 5000 nM	5000	> 5000	> 30
Cn1c(=O)cc(OCc2cn(CC[N+]3(C)CCCCC3)nn2)c2ccccc21 [alpha7 agonists 2]	> 30	–	1200	–	12
CN1[C@@H]2CC[C@H]1C[C@H](n1cc(COc3cc(=O)n(C)c4ccccc34)nn1)C2 [alpha7 agonists 4t]	15	–	11000	1.3	14
COc1cc(C=O)ccc1OCc1cn([C@@H]2C[C@H]3CC[C@@H](C2)[N+]3(C)C)nn1 [alpha7 agonists 8]	> 30	–	1000	–	6
Cc1cc([N+](=O)[O-])ccc1OCc1cn([C@@H]2C[C@H]3CC[C@@H](C2)[N+]3(C)C)nn1 [alpha7 agonists 9]	> 30	–	1900	–	14
C[N+](C)(C)CCn1cc(COc2cc([O])nc3ccccc23)nn1 [alpha7 agonists 6]	> 30	–	1700	–	14
COc1ccc(C=O)c(OCc2cn([C@@H]3C[C@H]4CC[C@@H](C3)N4C)nn2)c1 [13t]	5	–	> 30000	26	5
Cn1c(=O)cc(OCc2cn([C@@H]3C[C@H]4CC[C@@H](C3)[N+]4(C)C)nn2)c2ccccc21 [alpha7 agonists 4]	34	–	300	–	4
C[N+]1(C)[C@@H]2CC[C@H]1C[C@H](n1cc(C3(O)CCCCC3)nn1)C2 [11q]	> 30	–	9000	> 5000	> 30
